Laboratory results taken from ChEMBL document CHEMBL1649267, “Molecular epidemiology and mechanisms of carbapenem resistance in Pseudomonas aeruginosa” (2009).
Converted amounts (≈) assume the structure as drawn.

Key:
Pseudomonas aeruginosa [1] = type: functional; details: isolate Paebeta-24
Pseudomonas aeruginosa [2] = type: functional; details: isolate Paebeta-25
Pseudomonas aeruginosa [3] = type: functional; details: isolate Paebeta-27
Pseudomonas aeruginosa [4] = type: functional; details: isolate Paebeta-28
Pseudomonas aeruginosa [5] = type: functional; details: isolate Paebeta-29
Pseudomonas aeruginosa [6] = type: functional; details: isolate Paebeta-30
Pseudomonas aeruginosa [7] = type: functional; details: isolate Paebeta-22
Pseudomonas aeruginosa [8] = type: functional; details: isolate Paebeta-21
Pseudomonas aeruginosa [9] = type: functional; details: isolate Paebeta-20
Pseudomonas aeruginosa [10] = type: functional; details: isolate Paebeta-18
Pseudomonas aeruginosa [11] = type: functional; details: isolate Paebeta-17
Pseudomonas aeruginosa [12] = type: functional; details: isolate Paebeta-16
Pseudomonas aeruginosa [13] = type: functional; details: isolate Paebeta-15
Pseudomonas aeruginosa [14] = type: functional; details: isolate Paebeta-14
Pseudomonas aeruginosa [15] = type: functional; details: isolate Paebeta-13
Pseudomonas aeruginosa [16] = type: functional; details: isolate Paebeta-12
Pseudomonas aeruginosa [17] = type: functional; details: isolate Paebeta-11
Pseudomonas aeruginosa [18] = type: functional; details: isolate Paebeta-10
Pseudomonas aeruginosa [19] = type: functional; details: isolate Paebeta-09
Pseudomonas aeruginosa [20] = type: functional; details: isolate Paebeta-08
Pseudomonas aeruginosa [21] = type: functional; details: isolate Paebeta-07
Pseudomonas aeruginosa [22] = type: functional; details: isolate Paebeta-06
Pseudomonas aeruginosa [23] = type: functional; details: isolate Paebeta-05
Pseudomonas aeruginosa [24] = type: functional; details: isolate Paebeta-04
Pseudomonas aeruginosa [25] = type: functional; details: isolate Paebeta-03
Pseudomonas aeruginosa [26] = type: functional; details: isolate Paebeta-31
Pseudomonas aeruginosa [27] = type: functional; details: isolate Paebeta-32
Pseudomonas aeruginosa [28] = type: functional; details: isolate Paebeta-03; remark: listed apart in the source
Pseudomonas aeruginosa [29] = type: functional; details: isolate Paebeta-04; remark: listed apart in the source
Pseudomonas aeruginosa [30] = type: functional; details: isolate Paebeta-05; remark: listed apart in the source
Pseudomonas aeruginosa [31] = type: functional; details: isolate Paebeta-06; remark: listed apart in the source
Pseudomonas aeruginosa [32] = type: functional; details: isolate Paebeta-07; remark: listed apart in the source
Pseudomonas aeruginosa [33] = type: functional; details: isolate Paebeta-08; remark: listed apart in the source
Pseudomonas aeruginosa [34] = type: functional; details: isolate Paebeta-09; remark: listed apart in the source
Pseudomonas aeruginosa [35] = type: functional; details: isolate Paebeta-10; remark: listed apart in the source
Pseudomonas aeruginosa [36] = type: functional; details: isolate Paebeta-11; remark: listed apart in the source
Pseudomonas aeruginosa [37] = type: functional; details: isolate Paebeta-13; remark: listed apart in the source
Pseudomonas aeruginosa [38] = type: functional; details: isolate Paebeta-14; remark: listed apart in the source
Pseudomonas aeruginosa [39] = type: functional; details: isolate Paebeta-16; remark: listed apart in the source
Pseudomonas aeruginosa [40] = type: functional; details: isolate Paebeta-17; remark: listed apart in the source
Pseudomonas aeruginosa [41] = type: functional; details: isolate Paebeta-18; remark: listed apart in the source
Pseudomonas aeruginosa [42] = type: functional; details: isolate Paebeta-19
Pseudomonas aeruginosa [43] = type: functional; details: isolate Paebeta-20; remark: listed apart in the source
Pseudomonas aeruginosa [44] = type: functional; details: isolate Paebeta-21; remark: listed apart in the source
Pseudomonas aeruginosa [45] = type: functional; details: isolate Paebeta-22; remark: listed apart in the source
Pseudomonas aeruginosa [46] = type: functional; details: isolate Paebeta-23
Pseudomonas aeruginosa [47] = type: functional; details: isolate Paebeta-24; remark: listed apart in the source
Pseudomonas aeruginosa [48] = type: functional; details: isolate Paebeta-25; remark: listed apart in the source
Pseudomonas aeruginosa [49] = type: functional; details: isolate Paebeta-26
Pseudomonas aeruginosa [50] = type: functional; details: isolate Paebeta-27; remark: listed apart in the source
Pseudomonas aeruginosa [51] = type: functional; details: isolate Paebeta-28; remark: listed apart in the source
Pseudomonas aeruginosa [52] = type: functional; details: isolate Paebeta-29; remark: listed apart in the source
Pseudomonas aeruginosa [53] = type: functional; details: isolate Paebeta-30; remark: listed apart in the source
Pseudomonas aeruginosa [54] = type: functional; details: isolate Paebeta-31; remark: listed apart in the source
Pseudomonas aeruginosa [55] = type: functional; details: isolate Paebeta-32; remark: listed apart in the source
Pseudomonas aeruginosa [56] = type: functional; details: isolate Paebeta-23; remark: listed apart in the source
Pseudomonas aeruginosa [57] = test: microbe, parasite or virus in culture; details: isolate Paebeta-12
Description: Antibacterial activity against mexB, mexY and mexD expressing Pseudomonas aeruginosa isolate Paebeta-12 harboring A residue at 105 position in PDC- 2 and polymorphic OprD gene by Etest method in presence of cloxacillin

C[C@@H](O)[C@H]1C(=O)N2C(C(=O)O)=C(SCCNC=N)C[C@H]12 [IMIPENEM ANHYDROUS]
MIC (Pseudomonas aeruginosa [1]): 32 µg/mL (≈ 107 µM)
MIC (Pseudomonas aeruginosa [2]): 8 µg/mL (≈ 26.7 µM)
MIC (Pseudomonas aeruginosa [3]): 32 µg/mL (≈ 107 µM)
MIC (Pseudomonas aeruginosa [4]): 16 µg/mL (≈ 53.4 µM)
MIC (Pseudomonas aeruginosa [5]): 16 µg/mL (≈ 53.4 µM)
MIC (Pseudomonas aeruginosa [6]): 8 µg/mL (≈ 26.7 µM)
MIC (Pseudomonas aeruginosa [7]): 8 µg/mL (≈ 26.7 µM)
MIC (Pseudomonas aeruginosa [8]): 16 µg/mL (≈ 53.4 µM)
MIC (Pseudomonas aeruginosa [9]): 16 µg/mL (≈ 53.4 µM)
MIC (Pseudomonas aeruginosa [10]): 64 µg/mL (≈ 214 µM)
MIC (Pseudomonas aeruginosa [11]): 32 µg/mL (≈ 107 µM)
MIC (Pseudomonas aeruginosa [12]): 32 µg/mL (≈ 107 µM)
MIC (Pseudomonas aeruginosa [13]): 16 µg/mL (≈ 53.4 µM)
MIC (Pseudomonas aeruginosa [14]): 16 µg/mL (≈ 53.4 µM)
MIC (Pseudomonas aeruginosa [15]): 16 µg/mL (≈ 53.4 µM)
MIC (Pseudomonas aeruginosa [16]): 16 µg/mL (≈ 53.4 µM)
MIC (Pseudomonas aeruginosa [17]): 16 µg/mL (≈ 53.4 µM)
MIC (Pseudomonas aeruginosa [18]): 16 µg/mL (≈ 53.4 µM)
MIC (Pseudomonas aeruginosa [19]): 16 µg/mL (≈ 53.4 µM)
MIC (Pseudomonas aeruginosa [20]): 16 µg/mL (≈ 53.4 µM)
MIC (Pseudomonas aeruginosa [21]): 16 µg/mL (≈ 53.4 µM)
MIC (Pseudomonas aeruginosa [22]): 16 µg/mL (≈ 53.4 µM)
MIC (Pseudomonas aeruginosa [23]): 16 µg/mL (≈ 53.4 µM)
MIC (Pseudomonas aeruginosa [24]): 16 µg/mL (≈ 53.4 µM)
MIC (Pseudomonas aeruginosa [25]): 16 µg/mL (≈ 53.4 µM)
MIC (Pseudomonas aeruginosa [26]): 16 µg/mL (≈ 53.4 µM)
MIC (Pseudomonas aeruginosa [27]): 64 µg/mL (≈ 214 µM)
MIC (Pseudomonas aeruginosa [28]): 2 µg/mL (≈ 6.68 µM)
MIC (Pseudomonas aeruginosa [29]): 4 µg/mL (≈ 13.4 µM)
MIC (Pseudomonas aeruginosa [30]): 16 µg/mL (≈ 53.4 µM)
MIC (Pseudomonas aeruginosa [31]): 2 µg/mL (≈ 6.68 µM)
MIC (Pseudomonas aeruginosa [32]): 2 µg/mL (≈ 6.68 µM)
MIC (Pseudomonas aeruginosa [33]): 2 µg/mL (≈ 6.68 µM)
MIC (Pseudomonas aeruginosa [34]): 2 µg/mL (≈ 6.68 µM)
MIC (Pseudomonas aeruginosa [35]): 2 µg/mL (≈ 6.68 µM)
MIC (Pseudomonas aeruginosa [36]): 2 µg/mL (≈ 6.68 µM)
MIC (Pseudomonas aeruginosa [37]): 0.5 µg/mL (≈ 1.67 µM)
MIC (Pseudomonas aeruginosa [38]): 2 µg/mL (≈ 6.68 µM)
MIC (Pseudomonas aeruginosa [39]): 4 µg/mL (≈ 13.4 µM)
MIC (Pseudomonas aeruginosa [40]): 8 µg/mL (≈ 26.7 µM)
MIC (Pseudomonas aeruginosa [41]): 16 µg/mL (≈ 53.4 µM)
MIC (Pseudomonas aeruginosa [42]): 4 µg/mL (≈ 13.4 µM)
MIC (Pseudomonas aeruginosa [43]): 4 µg/mL (≈ 13.4 µM)
MIC (Pseudomonas aeruginosa [44]): 2 µg/mL (≈ 6.68 µM)
MIC (Pseudomonas aeruginosa [45]): 0.5 µg/mL (≈ 1.67 µM)
MIC (Pseudomonas aeruginosa [46]): 8 µg/mL (≈ 26.7 µM)
MIC (Pseudomonas aeruginosa [47]): 8 µg/mL (≈ 26.7 µM)
MIC (Pseudomonas aeruginosa [48]): 8 µg/mL (≈ 26.7 µM)
MIC (Pseudomonas aeruginosa [49]): 4 µg/mL (≈ 13.4 µM)
MIC (Pseudomonas aeruginosa [50]): 16 µg/mL (≈ 53.4 µM)
MIC (Pseudomonas aeruginosa [51]): 4 µg/mL (≈ 13.4 µM)
MIC (Pseudomonas aeruginosa [52]): 16 µg/mL (≈ 53.4 µM)
MIC (Pseudomonas aeruginosa [53]): 8 µg/mL (≈ 26.7 µM)
MIC (Pseudomonas aeruginosa [54]): 16 µg/mL (≈ 53.4 µM)
MIC (Pseudomonas aeruginosa [55]): 16 µg/mL (≈ 53.4 µM)
MIC (Pseudomonas aeruginosa [56]): 32 µg/mL (≈ 107 µM)
MIC (Pseudomonas aeruginosa [57]): 1 µg/mL (≈ 3.34 µM)

C[C@H]1[C@H](NC(=O)/C(=N\OC(C)(C)C(=O)O)c2csc(N)n2)C(=O)N1S(=O)(=O)O [AZTREONAM]
MIC (Pseudomonas aeruginosa [10]): 128 µg/mL (≈ 294 µM)
